Results: patent US10758534B2 (Vertex Pharmaceuticals Incorporated, priority 2014, dated 2020)

Target: T1, F508del (Homo sapiens, UniProt P13569, DEL508-508)
T1 construct: expressed in transfected cells
Experiment: Protocol 2: FRET membrane potential optical assay (VIPR), identification of correction compounds
Format: cell-based
Details: Table 3; compounds of Table 1 as modulators of CFTR activity; protocol not stated
In short: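 NIH3T3 mouse fibroblasts stably expressing F508del-CFTR incubated with compound 16 h at 37 °C in serum-free medium, then loaded with CC2-DMPE/DiSBAC2(3) FRET dyes. Channel activated with 10 μM forskolin plus 20 μM genistein in Cl⁻-free (gluconate) bath; depolarisation from Cl⁻ efflux read on VIPR II.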

T1 sequence (P13569 with tags, fused parts or gaps DEL508-508): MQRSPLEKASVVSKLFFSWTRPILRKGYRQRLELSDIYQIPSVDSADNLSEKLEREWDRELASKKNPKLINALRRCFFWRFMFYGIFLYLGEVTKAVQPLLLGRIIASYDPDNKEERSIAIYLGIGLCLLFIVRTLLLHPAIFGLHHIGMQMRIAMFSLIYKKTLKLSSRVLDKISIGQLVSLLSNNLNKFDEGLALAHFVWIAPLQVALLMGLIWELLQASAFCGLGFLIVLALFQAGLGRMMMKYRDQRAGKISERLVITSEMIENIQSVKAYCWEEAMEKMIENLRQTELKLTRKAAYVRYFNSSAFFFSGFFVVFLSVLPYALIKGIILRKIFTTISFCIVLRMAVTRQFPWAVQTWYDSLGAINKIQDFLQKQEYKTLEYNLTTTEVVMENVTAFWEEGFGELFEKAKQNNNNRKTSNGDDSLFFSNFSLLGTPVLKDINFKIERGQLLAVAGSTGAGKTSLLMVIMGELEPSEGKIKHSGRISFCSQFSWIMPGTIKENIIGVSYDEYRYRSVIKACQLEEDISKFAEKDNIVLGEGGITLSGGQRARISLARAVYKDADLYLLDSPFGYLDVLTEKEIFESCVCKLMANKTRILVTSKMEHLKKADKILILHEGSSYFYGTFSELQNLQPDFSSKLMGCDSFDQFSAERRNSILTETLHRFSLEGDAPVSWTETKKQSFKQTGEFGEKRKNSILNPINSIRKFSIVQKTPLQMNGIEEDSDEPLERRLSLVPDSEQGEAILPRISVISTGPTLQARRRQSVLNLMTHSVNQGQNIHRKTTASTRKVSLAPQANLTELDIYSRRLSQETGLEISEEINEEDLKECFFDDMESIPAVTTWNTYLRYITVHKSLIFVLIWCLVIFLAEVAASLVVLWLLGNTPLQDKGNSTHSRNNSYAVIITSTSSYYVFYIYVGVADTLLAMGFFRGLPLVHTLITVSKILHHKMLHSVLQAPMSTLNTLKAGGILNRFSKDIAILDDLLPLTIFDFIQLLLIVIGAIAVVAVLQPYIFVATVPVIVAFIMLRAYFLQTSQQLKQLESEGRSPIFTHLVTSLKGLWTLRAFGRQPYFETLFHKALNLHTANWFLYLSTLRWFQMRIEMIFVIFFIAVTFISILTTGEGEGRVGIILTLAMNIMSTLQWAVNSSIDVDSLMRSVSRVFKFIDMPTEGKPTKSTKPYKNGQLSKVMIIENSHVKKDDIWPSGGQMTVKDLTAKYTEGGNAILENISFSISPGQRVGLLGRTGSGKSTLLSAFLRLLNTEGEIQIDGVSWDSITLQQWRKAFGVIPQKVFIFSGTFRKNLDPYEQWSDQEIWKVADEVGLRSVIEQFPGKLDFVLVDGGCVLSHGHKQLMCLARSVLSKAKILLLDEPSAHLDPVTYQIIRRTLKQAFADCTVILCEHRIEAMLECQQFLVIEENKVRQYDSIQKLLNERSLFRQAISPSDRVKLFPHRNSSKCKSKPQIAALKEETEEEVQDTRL

EC30	Structure (SMILES)
+++ (“+++” means <3 uM)	CC(C)Oc1ccc(-c2ccc(C(=O)NS(=O)(=O)c3cccc(N)n3)c(N3CC[C@H](C)[C@H]3C)n2)cn1 [Compound 764, N-[(6-amino-2-pyridyl)sulfonyl]-2-[(2R,3S)-2,3-dimethylpyrrolidin-1-yl]-6-(6-isopropoxy-3-pyridyl)pyridine-3-carboxamide]
++ (“++” means between 3 uM and 10 uM)	COc1ncccc1S(=O)(=O)NC(=O)C1(C)c2ccccc2CN1Cc1c(C)cc(C)cc1C (centres unmarked) [Compound 765, N-[(2-methoxy-3-pyridyl)sulfonyl]-1-methyl-2-[(2,4,6-trimethylphenyl)methyl]isoindoline-1-carboxamide]
++ (“++” means between 3 uM and 10 uM)	CC(C)Oc1ccc(-c2ccc(C(=O)NS(=O)(=O)c3cccc(N)n3)c(NC(C)c3ccccc3)n2)cn1 (centres unmarked) [Compound 766, N-[(6-amino-2-pyridyl)sulfonyl]-6-(6-isopropoxy-3-pyridyl)-2-(1-phenylethylamino)pyridine-3-carboxamide]
+++ (“+++” means <3 uM)	Cc1cc(C)c(Oc2nc(C(C)(C)C)ccc2C(=O)NS(=O)(=O)c2cccc(N)n2)c(C#N)c1 [Compound 767, N-[(6-amino-2-pyridyl)sulfonyl]-6-tert-butyl-2-(2-cyano-4,6-dimethyl-phenoxy)pyridine-3-carboxamide]
++ (“++” means between 3 uM and 10 uM)	COc1cc(-c2ccc(C(=O)NS(=O)(=O)c3cccc(N)n3)c(Oc3c(C)cc(C)cc3C)n2)ccc1O [Compound 768, N-[(6-amino-2-pyridyl)sulfonyl]-6-(4-hydroxy-3-methoxy-phenyl)-2-(2,4,6-trimethylphenoxy)pyridine-3-carboxamide]
++ (“++” means between 3 uM and 10 uM)	CC(C)Oc1ccc(-c2ccc(C(=O)NS(=O)(=O)c3ccc[nH]c3=O)c(N3[C@H](C)CC[C@@H]3C)n2)cn1 [Compound 770, 2-[(2S,5R)-2,5-dimethylpyrrolidin-1-yl]-6-(6-isopropoxy-3-pyridyl)-N-[(2-oxo-1H-pyridin-3-yl)sulfonyl]pyridine-3-carboxamide]
+++ (“+++” means <3 uM)	CCCOc1cc(-c2ccc(C(=O)NS(=O)(=O)c3cccc(N)n3)c(N3[C@H](C)CC[C@@H]3C)n2)ccc1Cl [Compound 773, N-[(6-amino-2-pyridyl)sulfonyl]-6-(4-chloro-3-propoxy-phenyl)-2-[(2R,5S)-2,5-dimethylpyrrolidin-1-yl]pyridine-3-carboxamide]
+++ (“+++” means <3 uM)	CC(C)Oc1ccc(-c2ccc(C(=O)NS(=O)(=O)c3ccn[nH]3)c(N3CCC[C@@H](c4ccccc4)C3)n2)cn1 [Compound 776, 6-(6-isopropoxy-3-pyridyl)-2-[(3S)-3-phenyl-1-piperidyl]-N-(1H-pyrazol-5-ylsulfonyl)pyridine-3-carboxamide]
+++ (“+++” means <3 uM)	CC1CN(c2nc(-c3cncc(OCC(C)(C)C)n3)ccc2C(=O)NS(=O)(=O)c2cccc(N)n2)C(C)(C)C1 (centres unmarked) [Compound 779, N-[(6-amino-2-pyridyl)sulfonyl]-6-[6-(2,2-dimethylpropoxy)pyrazin-2-yl]-2-(2,2,4-trimethylpyrrolidin-1-yl)pyridine-3-carboxamide]
+ (“+” means greater than 10 uM)	COc1cccc(-c2ccc(C(=O)NS(=O)(=O)c3ccc[nH]c3=O)c(N3[C@H](C)CC[C@@H]3C)n2)n1 [Compound 781, 2-[(2S,5R)-2,5-dimethylpyrrolidin-1-yl]-6-(6-methoxy-2-pyridyl)-N-[(2-oxo-1H-pyridin-3-yl)sulfonyl]pyridine-3-carboxamide]
+++ (“+++” means <3 uM)	Cc1cc(C)c(Oc2nc(C3CCC(F)(F)CC3)ccc2C(=O)NS(=O)(=O)c2cccc(N)n2)c(C)c1 [Compound 783, N-[(6-amino-2-pyridyl)sulfonyl]-6-(4,4-difluorocyclohexyl)-2-(2,4,6-trimethylphenoxy)pyridine-3-carboxamide]
+++ (“+++” means <3 uM)	Cc1cc(C)c(Oc2nc(-c3ccccc3)ccc2C(=O)NS(=O)(=O)c2ccn[nH]2)c(C)c1 [Compound 784, 6-phenyl-N-(1H-pyrazol-5-ylsulfonyl)-2-(2,4,6-trimethylphenoxy)pyridine-3-carboxamide]
+++ (“+++” means <3 uM)	Cc1cc(C)c(Oc2nc(N3CCCCC3)ccc2C(=O)NS(=O)(=O)c2cccc(N)n2)c(C)c1 [Compound 785, N-[(6-amino-2-pyridyl)sulfonyl]-6-(1-piperidyl)-2-(2,4,6-trimethylphenoxy)pyridine-3-carboxamide]

Further lines, the compound ahead of its results:

Structure (SMILES)	EC30
CC(C)Oc1ccc(-c2ccc(C(=O)NS(=O)(=O)c3cccc(N)n3)c(N3CCC[C@@H](C)C3)n2)cn1 [Compound 757, N-[(6-amino-2-pyridyl)sulfonyl]-6-(6-isopropoxy-3-pyridyl)-2-[(3R)-3-methyl-1-piperidyl]pyridine-3-carboxamide]	+++ (“+++” means <3 uM)
Cc1ccc(Oc2nc(-c3cc(F)cc(OCC(C)C)c3)ccc2C(=O)NS(=O)(=O)c2ccn[nH]2)cc1 [Compound 758, 6-(3-fluoro-5-isobutoxy-phenyl)-2-(4-methylphenoxy)-N-(1H-pyrazol-5-ylsulfonyl)pyridine-3-carboxamide]	++ (“++” means between 3 uM and 10 uM)
COc1ncccc1S(=O)(=O)NC(=O)c1cc(C(C)(C)C)nn1Cc1c(C)cc(C)cc1C [Compound 759, 5-tert-butyl-N-[(2-methoxy-3-pyridyl)sulfonyl]-2-[(2,4,6-trimethylphenyl)methyl]pyrazole-3-carboxamide]	+++ (“+++” means <3 uM)
C[C@@H]1CC[C@H](C)N1c1nc(-c2ccc(Cl)cc2)ccc1C(=O)NS(=O)(=O)c1ccc[nH]c1=O [Compound 760, 6-(4-chlorophenyl)-2-[(2S,5R)-2,5-dimethylpyrrolidin-1-yl]-N-[(2-oxo-1H-pyridin-3-yl)sulfonyl]pyridine-3-carboxamide]	++ (“++” means between 3 uM and 10 uM)
Cc1ccccc1-c1ccc(C(=O)NS(=O)(=O)c2cccc(N)n2)c(N2CC(C)CC2(C)C)n1 (centres unmarked) [Compound 761, N-[(6-amino-2-pyridyl)sulfonyl]-6-(o-tolyl)-2-(2,2,4-trimethylpyrrolidin-1-yl)pyridine-3-carboxamide]	+++ (“+++” means <3 uM)
COc1ccc(F)c(-c2ccc(C(=O)NS(=O)(=O)c3ccc[nH]c3=O)c(Oc3c(C)cc(C)cc3C)n2)c1 [Compound 762, 6-(2-fluoro-5-methoxy-phenyl)-N-[(2-oxo-1H-pyridin-3-yl)sulfonyl]-2-(2,4,6-trimethylphenoxy)pyridine-3-carboxamide]	++ (“++” means between 3 uM and 10 uM)
Cc1cc(C(=O)NS(=O)(=O)c2cccc(N)n2)c(N2CC(C)CC2(C)C)nc1-c1ccc(F)cc1 (centres unmarked) [Compound 763, N-[(6-amino-2-pyridyl)sulfonyl]-6-(4-fluorophenyl)-5-methyl-2-(2,2,4-trimethylpyrrolidin-1-yl)pyridine-3-carboxamide]	+++ (“+++” means <3 uM)
CC(C)COc1cc(F)cc(-c2ccc(C(=O)NS(=O)(=O)c3cccc(N)n3)c(OCC3CC3(F)F)n2)c1 (centres unmarked) [Compound 769, N-[(6-amino-2-pyridyl)sulfonyl]-2-[(2,2-difluorocyclopropyl)methoxy]-6-(3-fluoro-5-isobutoxy-phenyl)pyridine-3-carboxamide]	+++ (“+++” means <3 uM)
Cc1cc(C)c(Oc2nc(-c3cc(F)cc(OCC(C)C)c3)ccc2C(=O)NS(=O)(=O)c2cccc(C#N)n2)c(C)c1 [Compound 771, N-[(6-cyano-2-pyridyl)sulfonyl]-6-(3-fluoro-5-isobutoxy-phenyl)-2-(2,4,6-trimethylphenoxy)pyridine-3-carboxamide]	+++ (“+++” means <3 uM)
CC(C)COc1cc(F)cc(-c2ccc(C(=O)NS(=O)(=O)c3cccc(N)n3)c(N3CCCC3Cc3ccccc3)n2)c1 (centres unmarked) [Compound 772, N-[(6-amino-2-pyridyl)sulfonyl]-2-(2-benzylpyrrolidin-1-yl)-6-(3-fluoro-5-isobutoxy-phenyl)pyridine-3-carboxamide]	+++ (“+++” means <3 uM)
COC1(C)CCN(c2nc(-c3cc(F)cc(OCC(C)C)c3)ccc2C(=O)NS(=O)(=O)c2ccn[nH]2)CC1 [Compound 774, 6-(3-fluoro-5-isobutoxy-phenyl)-2-(4-methoxy-4-methyl-1-piperidyl)-N-(1H-pyrazol-5-ylsulfonyl)pyridine-3-carboxamide]	+++ (“+++” means <3 uM)
CC(C)COc1cc(F)cc(-c2ccc(C(=O)NS(=O)(=O)c3cccc(=O)[nH]3)c(N3CCC(C)(C)CC3)n2)c1 [Compound 775, 2-(4,4-dimethyl-1-piperidyl)-6-(3-fluoro-5-isobutoxy-phenyl)-N-[(6-oxo-1H-pyridin-2-yl)sulfonyl]pyridine-3-carboxamide]	+++ (“+++” means <3 uM)
CC(C)COc1cccc(-c2ccc(C(=O)NS(=O)(=O)c3cccc(N)n3)c(N3CCC(C)CC3)n2)c1 [Compound 777, N-[(6-amino-2-pyridyl)sulfonyl]-6-(3-isobutoxyphenyl)-2-(4-methyl-1-piperidyl)pyridine-3-carboxamide]	+++ (“+++” means <3 uM)
Cc1ccccc1Oc1nc(-c2cc(F)cc(OCC(C)C)c2)ccc1C(=O)NS(=O)(=O)c1cccc(N)n1 [Compound 778, N-[(6-amino-2-pyridyl)sulfonyl]-6-(3-fluoro-5-isobutoxy-phenyl)-2-(2-methylphenoxy)pyridine-3-carboxamide]	+++ (“+++” means <3 uM)
CC(C)COc1cc(F)cc(-c2ccc(C(=O)NS(=O)(=O)c3cccc(N)n3)c(N3CCC(C(F)(F)F)C3(C)C)n2)c1 (centres unmarked) [Compound 780, N-[(6-amino-2-pyridyl)sulfonyl]-2-[2,2-dimethyl-3-(trifluoromethyl)pyrrolidin-1-yl]-6-(3-fluoro-5-isobutoxy-phenyl)pyridine-3-carboxamide]	+++ (“+++” means <3 uM)
Cc1ccccc1C(C)Oc1nc(-c2cc(F)cc(OCC(C)C)c2)ccc1C(=O)NS(=O)(=O)c1cccc(N)n1 (centres unmarked) [Compound 782, N-[(6-amino-2-pyridyl)sulfonyl]-6-(3-fluoro-5-isobutoxy-phenyl)-2-[1-(o-tolyl)ethoxy]pyridine-3-carboxamide]	+++ (“+++” means <3 uM)
